The record followed here is ChEMBL document CHEMBL5528009, “Benzothiozinone derivatives with anti-tubercular Activity-Further side chain investigation” (Eur J Med Chem, 2024).

Structures are written as SMILES. ≈ marks a conversion by molar mass, not a printed value. Calls of active or inactive are those of the source. No cut-off for these calls is given here.

The test system of data set [1] is Mycobacterium tuberculosis. In words: Antitubercular activity against Mycobacterium tuberculosis H37Rv (ATCC 25618) incubated for […] by MABA assay. The class given is functional. On the technique in general: Alamar Blue is a resazurin reagent that responds to reducing activity.
The nature of data set [2]: Metabolic stability in NADPH-fortified human liver microsomes assessed as CYP450-mediated stability incubated for 120 mins by LC/MS analysis. The note with it: 2 h. The class given is ADME, Microsome.
Data set [3] can be described thus: Metabolic stability in NADPH-fortified mouse liver microsomes assessed as CYP450-mediated stability incubated for 120 mins by LC/MS analysis. The class given is ADME, Microsome. The note with it: 2 h. (Liver microsomes are a subcellular fraction often used to study metabolism.)
The target of data set [4] is T1, Decaprenylphosphoryl-beta-D-ribose oxidase (Mycobacterium tuberculosis (strain ATCC 25618 / H37Rv)) (UniProt P9WJF1).
T1 sequence (whole entry): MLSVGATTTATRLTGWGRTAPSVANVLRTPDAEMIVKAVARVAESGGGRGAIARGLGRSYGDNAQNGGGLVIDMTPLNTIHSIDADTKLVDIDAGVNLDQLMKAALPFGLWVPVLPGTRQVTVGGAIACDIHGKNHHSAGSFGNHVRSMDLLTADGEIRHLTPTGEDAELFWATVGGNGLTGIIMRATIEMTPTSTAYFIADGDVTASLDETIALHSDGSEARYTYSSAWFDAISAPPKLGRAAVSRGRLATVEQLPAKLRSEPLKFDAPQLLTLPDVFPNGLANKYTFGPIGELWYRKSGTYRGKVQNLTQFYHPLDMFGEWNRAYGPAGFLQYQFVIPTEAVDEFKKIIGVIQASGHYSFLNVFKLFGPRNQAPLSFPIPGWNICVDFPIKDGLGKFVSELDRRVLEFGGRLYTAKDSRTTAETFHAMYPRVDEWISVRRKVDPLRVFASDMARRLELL
In words: Time-dependent covalent inhibition of recombinant Mycobacterium tuberculosis DprE1 expressed in Escherichia coli by Amplex Red/peroxidase coupled assay.

Usually MIC stands for the lowest concentration that inhibits growth of the organism. A low value points to inhibition by little substance. Consider `CN(CC#CCN1CC2(COC2)C1)c1nc(=O)c2cc(C(F)(F)F)cc([N+](=O)[O-])c2s1`, for which inhibition of growth in data set [1] (MIC) required 0.423 µM (≈ 0.192 µg/mL).

`CN(C/C=C/C1CC1)c1nc(=O)c2cc(C(F)(F)F)cc([N+](=O)[O-])c2s1` displayed an MIC in data set [1] of 0.023 µM (≈ 0.00886 µg/mL).

Consider `C#CCN(C)c1nc(=O)c2cc(C(F)(F)F)cc([N+](=O)[O-])c2s1`, for which, in data set [1], the MIC came to 1.4 µM (≈ 0.479 µg/mL).

On to `CN(CC#CCN1CC[S+]([O-])CC1)c1nc(=O)c2cc(C(F)(F)F)cc([N+](=O)[O-])c2s1`, for which the MIC in data set [1] was 1.05 µM (≈ 0.498 µg/mL).

Consider `CN(CC#Cc1ccsc1)c1nc(=O)c2cc(C(F)(F)F)cc([N+](=O)[O-])c2s1`, for which inhibition of growth in data set [1] (MIC) required 0.014 µM (≈ 0.00596 µg/mL). Besides, the Stability entry in data set [2] and in data set [3] was “Stable” throughout.

In the case of `CN(CC#CC1CCCC1)c1nc(=O)c2cc(C(F)(F)F)cc([N+](=O)[O-])c2s1`, the MIC in data set [1] stood at 0.005 µM (≈ 0.00206 µg/mL).

With `CN(CC#CCN1CCCCC1)c1nc(=O)c2cc(C(F)(F)F)cc([N+](=O)[O-])c2s1`, inhibition of growth in data set [1] (MIC) required 0.127 µM (≈ 0.0559 µg/mL).

For `CN(C/C=C\C1CCCC1)c1nc(=O)c2cc(C(F)(F)F)cc([N+](=O)[O-])c2s1`, the MIC in data set [1] worked out at 0.01 µM (≈ 0.00413 µg/mL).

As for `CN(CC#Cc1ccc(F)cc1)c1nc(=O)c2cc(C(F)(F)F)cc([N+](=O)[O-])c2s1`, the MIC in data set [1] was determined as 0.013 µM (≈ 0.00569 µg/mL).

`CN(CC#CCN1CCOCC1)c1nc(=O)c2cc(C(F)(F)F)cc([N+](=O)[O-])c2s1`: in data set [1], it took 0.106 µM (≈ 0.0469 µg/mL) to inhibit growth (MIC).

Take `CN(CC#CCN1CCSC1)c1nc(=O)c2cc(C(F)(F)F)cc([N+](=O)[O-])c2s1`: the lowest concentration to inhibit growth in data set [1] (MIC) was 0.029 µM (≈ 0.0129 µg/mL).

`CN(CC#CC(C)(C)C)c1nc(=O)c2cc(C(F)(F)F)cc([N+](=O)[O-])c2s1`: the MIC in data set [1] is 0.023 µM (≈ 0.00919 µg/mL).

Consider `CN(C/C=C\C1CCCCC1)c1nc(=O)c2cc(C(F)(F)F)cc([N+](=O)[O-])c2s1`, for which the MIC in data set [1] is 0.009 µM (≈ 0.00385 µg/mL).

Regarding `CN(Cc1nnc(-c2ccccc2)o1)c1nc(=O)c2cc(S(C)(=O)=O)cc([N+](=O)[O-])c2s1`, in data set [1], 0.03 µM (≈ 0.0142 µg/mL) was the least that counted as inhibitory (MIC).

In data set [1], `CN(C/C=C\C1CC1)c1nc(=O)c2cc(C(F)(F)F)cc([N+](=O)[O-])c2s1` showed an MIC of 0.042 µM (≈ 0.0162 µg/mL).

`CN(CC#Cc1cccs1)c1nc(=O)c2cc(C(F)(F)F)cc([N+](=O)[O-])c2s1` had an MIC in data set [1] of 0.014 µM (≈ 0.00596 µg/mL). The Stability entry in data set [2] and in data set [3] was “Stable” each time. For the same compound, the TDI entry in data set [4] is “Active”.

With `CN(CC#CC(O)CN1CCCCC1)c1nc(=O)c2cc(C(F)(F)F)cc([N+](=O)[O-])c2s1` (configuration not stated), the MIC in data set [1] worked out at 1.05 µM (≈ 0.493 µg/mL).

`COc1cccc(C#CCN(C)c2nc(=O)c3cc(C(F)(F)F)cc([N+](=O)[O-])c3s2)c1` registered an MIC in data set [1] of 0.093 µM (≈ 0.0418 µg/mL).

Turning to `CN(CC#Cc1cncs1)c1nc(=O)c2cc(C(F)(F)F)cc([N+](=O)[O-])c2s1`, in data set [1], the lowest concentration to inhibit growth (MIC) was 0.129 µM (≈ 0.055 µg/mL).

As for `CN(CC#Cc1cnsc1)c1nc(=O)c2cc(C(F)(F)F)cc([N+](=O)[O-])c2s1`, inhibition of growth in data set [1] (MIC) required 0.03 µM (≈ 0.0128 µg/mL).

Compound `CN1CCN(CC#CCN(C)c2nc(=O)c3cc(C(F)(F)F)cc([N+](=O)[O-])c3s2)CC1` registered an MIC in data set [1] of 1.92 µM (≈ 0.876 µg/mL).

`CN(C/C=C/C1CCCC1)c1nc(=O)c2cc(C(F)(F)F)cc([N+](=O)[O-])c2s1`: in data set [1], the MIC was 0.002 µM (≈ 0.000827 µg/mL).

Turning to `CN(CC#Cc1ccc2c(c1)OCO2)c1nc(=O)c2cc(C(F)(F)F)cc([N+](=O)[O-])c2s1`, 0.145 µM (≈ 0.0672 µg/mL) was the least that counted as inhibitory in data set [1] (MIC).

Compound `CN(CC#CCN1CCSCC1)c1nc(=O)c2cc(C(F)(F)F)cc([N+](=O)[O-])c2s1` came in with an MIC in data set [1] of 0.028 µM (≈ 0.0128 µg/mL).

As for `CN(Cc1cn(-c2ccccc2)nn1)c1nc(=O)c2cc(S(C)(=O)=O)cc([N+](=O)[O-])c2s1`, the MIC in data set [1] stood at 0.047 µM (≈ 0.0222 µg/mL).

`CN1CCC(O)(C#CCN(C)c2nc(=O)c3cc(C(F)(F)F)cc([N+](=O)[O-])c3s2)CC1` returned an MIC in data set [1] of 16.9 µM (≈ 7.72 µg/mL).

`CN(CC#CCc1ccccc1)c1nc(=O)c2cc(C(F)(F)F)cc([N+](=O)[O-])c2s1` displayed an MIC in data set [1] of 0.053 µM (≈ 0.023 µg/mL). The TDI entry in data set [4] was “Active”.

`CN(CC#Cc1ccc2c(c1)OCCO2)c1nc(=O)c2cc(C(F)(F)F)cc([N+](=O)[O-])c2s1` came in with an MIC in data set [1] of 0.092 µM (≈ 0.0439 µg/mL).

In data set [1], `CN(CC#Cc1cccc(C#N)c1)c1nc(=O)c2cc(C(F)(F)F)cc([N+](=O)[O-])c2s1` registered an MIC of 0.029 µM (≈ 0.0129 µg/mL).

Compound `CN(CC#CCN1CCS(=O)(=O)CC1)c1nc(=O)c2cc(C(F)(F)F)cc([N+](=O)[O-])c2s1` gave an MIC in data set [1] of 0.867 µM (≈ 0.425 µg/mL).

`CN(C)CCc1ccc(C#CCN(C)c2nc(=O)c3cc(C(F)(F)F)cc([N+](=O)[O-])c3s2)cc1` gave an MIC in data set [1] of 1.01 µM (≈ 0.495 µg/mL).

Turning to `CN(C/C=C\c1ccccc1)c1nc(=O)c2cc(C(F)(F)F)cc([N+](=O)[O-])c2s1`, the MIC in data set [1] was 0.045 µM (≈ 0.019 µg/mL). In data set [4], the TDI result is “Active”.

In data set [1], `CN(CC#Cc1ccccc1F)c1nc(=O)c2cc(C(F)(F)F)cc([N+](=O)[O-])c2s1` came in with an MIC of 0.011 µM (≈ 0.00481 µg/mL).

The compound `CN(C)Cc1ccc(C#CCN(C)c2nc(=O)c3cc(C(F)(F)F)cc([N+](=O)[O-])c3s2)cc1` had an MIC in data set [1] of 0.47 µM (≈ 0.224 µg/mL).

Take `CN(C/C=C/C1CCCCC1)c1nc(=O)c2cc(C(F)(F)F)cc([N+](=O)[O-])c2s1`: the MIC in data set [1] is 0.002 µM (≈ 0.000855 µg/mL).

Regarding `CN(CC#Cc1ccc(F)c(F)c1)c1nc(=O)c2cc(C(F)(F)F)cc([N+](=O)[O-])c2s1`, the MIC in data set [1] amounted to 0.013 µM (≈ 0.00592 µg/mL).

With `CN(CC#CCN1CCCC1)c1nc(=O)c2cc(C(F)(F)F)cc([N+](=O)[O-])c2s1`, the MIC in data set [1] stood at 0.378 µM (≈ 0.161 µg/mL).

In data set [1], `CN(CC#Cc1ccc(F)cc1F)c1nc(=O)c2cc(C(F)(F)F)cc([N+](=O)[O-])c2s1` gave an MIC of 0.007 µM (≈ 0.00319 µg/mL).

As to `CN(C/C=C/c1ccccc1)c1nc(=O)c2cc(C(F)(F)F)cc([N+](=O)[O-])c2s1`, the MIC in data set [1] is 0.024 µM (≈ 0.0101 µg/mL). The TDI entry in data set [4] was “Active”.
